Measurements from PubChem BioAssay AID1963871 (Molecular Pharmacology Branch, DTP, NCI, 2024).

Test system: KRAS-mutant PDC multicell tumor spheroid viability
Assay: Anticancer human tumor 521955-158-R2-J5-PDC patient-derived pancreatic carcinoma cell line growth inhibition [KRAS2]
Conditions: for IC50: curve of first compound; for viability, T/C: stronger effect = lower value
Method in brief: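 KRAS-mutant tumor cells were grown as spheroids with HUVEC endothelial cells and human MSCs as stroma. Targeted agents were tested alone and with KRAS pathway inhibitors. Doses started at or near clinical Cmax, or 10 microM, descending half-log.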

[1] = second compound 0.1 µM, first compound 0.0316 µM
[2] = second compound 0.1 µM, first compound 0.1 µM
[3] = second compound 0.316 µM, first compound 0.0316 µM
[4] = second compound 0.316 µM, first compound 0.1 µM
[5] = second compound 1 µM, first compound 0.0316 µM
[6] = second compound 1 µM, first compound 0.1 µM
[7] = second compound 3.16 µM, first compound 0.0316 µM
[8] = second compound 3.16 µM, first compound 0.1 µM
[9] = second compound 10 µM, first compound 0.0316 µM
[10] = second compound 10 µM, first compound 0.1 µM
[11] = second compound 0.1 µM, first compound 0.316 µM
[12] = second compound 0.1 µM, first compound 1 µM
[13] = second compound 0.1 µM, first compound 3.16 µM
[14] = second compound 0.1 µM, first compound 10 µM
[15] = second compound 0.316 µM, first compound 0.316 µM
[16] = second compound 0.316 µM, first compound 1 µM
[17] = second compound 0.316 µM, first compound 3.16 µM
[18] = second compound 0.316 µM, first compound 10 µM
[19] = second compound 1 µM, first compound 0.316 µM
[20] = second compound 1 µM, first compound 1 µM
[21] = second compound 1 µM, first compound 3.16 µM
[22] = second compound 1 µM, first compound 10 µM
[23] = second compound 3.16 µM, first compound 0.316 µM
[24] = second compound 3.16 µM, first compound 1 µM
[25] = second compound 3.16 µM, first compound 3.16 µM
[26] = second compound 3.16 µM, first compound 10 µM
[27] = second compound 10 µM, first compound 0.316 µM
[28] = second compound 10 µM, first compound 1 µM
[29] = second compound 10 µM, first compound 3.16 µM
[30] = second compound 10 µM, first compound 10 µM
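Note: viability read after seven days of drug exposure.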

| SMILES | IC50 (second compound 0.1 µM) | IC50 (second compound 0.316 µM) | IC50 (second compound 1 µM) | IC50 (second compound 3.16 µM) | IC50 (second compound 10 µM) | viability, T/C [1] | viability, T/C [2] | viability, T/C [3] | viability, T/C [4] | viability, T/C [5] | viability, T/C [6] | viability, T/C [7] | viability, T/C [8] | viability, T/C [9] | viability, T/C [10] | viability, T/C [11] | viability, T/C [12] | viability, T/C [13] | viability, T/C [14] | viability, T/C [15] | also measured |
| --- | --- | --- | --- | --- | --- | --- | --- | --- | --- | --- | --- | --- | --- | --- | --- | --- | --- | --- | --- | --- | --- |
| Cn1ncnc1[C@H]1c2n[nH]c(=O)c3cc(F)cc(c23)N[C@@H]1c1ccc(F)cc1 + COc1cc2nc(C)nc(NC(C)c3cc(N)cc(C(F)(F)F)c3)c2cc1OC1CCOC1 | > 100 nM | > 100 nM | > 100 nM | > 100 nM | > 100 nM | 70.3% | 66.2% | 67.4% | 65.2% | 69.3% | 71.1% | 77.8% | 70.3% | 57.6% | 55% |  |  |  |  |  | viability, T/C (second compound 0.1 µM, first compound 0.000316 µM): 80.6%; viability, T/C (second compound 0.1 µM, first compound 0.001 µM): 78.6%; viability, T/C (second compound 0.1 µM, first compound 0.00316 µM): 85.2%; viability, T/C (second compound 0.1 µM, first compound 0.01 µM): 67.1%; viability, T/C (second compound 0.316 µM, first compound 0.000316 µM): 81.2%; viability, T/C (second compound 0.316 µM, first compound 0.001 µM): 90.5%; viability, T/C (second compound 0.316 µM, first compound 0.00316 µM): 85.3%; viability, T/C (second compound 0.316 µM, first compound 0.01 µM): 63.2%; viability, T/C (second compound 1 µM, first compound 0.000316 µM): 86%; viability, T/C (second compound 1 µM, first compound 0.001 µM): 88.1%; viability, T/C (second compound 1 µM, first compound 0.00316 µM): 84%; viability, T/C (second compound 1 µM, first compound 0.01 µM): 75.1%; viability, T/C (second compound 3.16 µM, first compound 0.000316 µM): 94.2%; viability, T/C (second compound 3.16 µM, first compound 0.001 µM): 94.6%; viability, T/C (second compound 3.16 µM, first compound 0.00316 µM): 88.7%; viability, T/C (second compound 3.16 µM, first compound 0.01 µM): 81.2%; viability, T/C (second compound 10 µM, first compound 0.000316 µM): 84.7%; viability, T/C (second compound 10 µM, first compound 0.001 µM): 70.5%; viability, T/C (second compound 10 µM, first compound 0.00316 µM): 75.3%; viability, T/C (second compound 10 µM, first compound 0.01 µM): 67.9% |
| COc1cc(Nc2ncc3c(n2)-c2ccc(Cl)cc2C(c2c(F)cccc2OC)=NC3)ccc1C(=O)O + CC1OCC2(CCN(c3cnc(Sc4ccnc(N)c4Cl)c(N)n3)CC2)C1N | < 31.6 nM | < 31.6 nM | < 31.6 nM | < 31.6 nM | < 31.6 nM | 44.6% | 45.2% | 41% | 39.3% | 39.5% | 35.1% | 38.4% | 31.1% | 37.8% | 37.7% | 39.7% | 38.8% | 37.2% | 37.4% | 45.5% | viability, T/C [16]: 34.4%; viability, T/C [17]: 36.4%; viability, T/C [18]: 35.8%; viability, T/C [19]: 38.1%; viability, T/C [20]: 36%; viability, T/C [21]: 34.5%; viability, T/C [22]: 30.5%; viability, T/C [23]: 30.8%; viability, T/C [24]: 30%; viability, T/C [25]: 28.2%; viability, T/C [26]: 33.6%; viability, T/C [27]: 36%; viability, T/C [28]: 37.1%; viability, T/C [29]: 27.1%; viability, T/C [30]: 31.1% |
| COc1cc2nccc(Oc3ccc(NC(=O)C4(C(=O)Nc5ccc(F)cc5)CC4)cc3)c2cc1OC + COc1cc2nc(C)nc(NC(C)c3cc(N)cc(C(F)(F)F)c3)c2cc1OC1CCOC1 | 7430 nM | 7590 nM | 5580 nM | 3270 nM | 1470 nM | 93.7% | 99.6% | 99.7% | 98.1% | 89% | 96.1% | 100% | 96.8% | 93.4% | 73.2% | 88.6% | 95.1% | 85.6% | 37.4% | 88.6% | viability, T/C [16]: 88.9%; viability, T/C [17]: 83.6%; viability, T/C [18]: 39.5%; viability, T/C [19]: 96.6%; viability, T/C [20]: 90.1%; viability, T/C [21]: 72%; viability, T/C [22]: 27.5%; viability, T/C [23]: 101%; viability, T/C [24]: 105%; viability, T/C [25]: 51.2%; viability, T/C [26]: 6.41%; viability, T/C [27]: 67%; viability, T/C [28]: 74.8%; viability, T/C [29]: 0.78%; viability, T/C [30]: 0.24% |
